Measured values reported in patent publication US12421252B2, “Spiro (isobenzofuranazetidine) compounds for the treatment of autoimmune disease” (Hoffmann-La Roche Inc., priority 2020, dated 2025).

Assays:
CYP3A4 = target: T1, CYP3A4 (Homo sapiens, UniProt P08684); assay: CYP inhibition assay in human liver microsome, CYP3A4; format: in vitro ADME; settings: percentage inhibition, substrate Midazolam 5 μM, <0: not or weak inhibitor
T1 construct: tissue BD-Gentest 452117; host or cells: human liver microsomes
Procedure: This is a high throughput screening assay used for assessment of reversible inhibition of CYP2C9, CYP2D6, and CYP3A4 activity of test compounds in human liver microsome (HLM) in early discovery stage.
Procedure 10 mM DMSO stock solutions of test compounds were diluted in DMSO to generate 2 mM intermediate stock solution. 250 nL of intermediate stock solution were transferred in duplicate into 3 separate 384 well microtitre plates (assay-ready plates). A mixture of HLM and each substrate was made up. 45 μL of HLM substrate mix was then transferred to each well of an assay ready plate and mixed. The negative (solvent) and positive controls (standard inhibitor for each CYP) were included in each assay ready plate. The assay ready plate was warmed to 37° C. in an incubator over 10 minutes. 5 μL pre-warmed NADPH regenerating system was added to each incubation well to start the reaction. Final incubation volume was 50 μL. The assay plate then was placed back in the 37° C. incubator. After incubation (10 minutes for CYP2D6) for 5 minutes, incubates were quenched by addition of 50 μL 100% acetonitrile containing internal standards (400 ng/mL 13C6-4′-OH-Diclofenac, 20 ng/mL D3-Dextrorphan and 20 ng/mL D4-1′OH-Midazolam). The supernatants were collected for RapidFire/MS/MS analysis.
RapidFire online solid phase extraction/sample injection system (Agilent) coupled with API4000 triple quadrupole mass spectrometer (AB Sciex) were used for sample analysis. The mobile phase composed of acetonitrile and water supplemented with 0.1% formic acid. A C4 solid phase extraction cartridge is used for sample separation. MS detection is achieved in positive ion MRM mode.
Data analysis Peak areas for substrate, metabolite and internal standard are determined using the RapidFire integrator software (version 3.6.12009.12296). Peak area ratios (PAR) of metabolite and internal standard (stable-labelled metabolite) are then calculated. The measurement window for each experiment is then defined: PAR (0% activity)=average PAR for all incubations containing concentrated inhibitor; Par (100% activity)=average PAR for all incubations containing no inhibitor (DMSO controls); % Activity (test inhibitor)=[PAR (test inhibitor)-PAR (0% activity)]/[PAR (100% activity)-PAR (0% activity)]; % Inhibition (test inhibitor)=100-% Activity (test inhibitor).

hERG channel = target: T2, hERG channel (Homo sapiens, UniProt Q12809); assay: hERG channel inhibition assay (patch-clamp, CHO hERG cells); format: cell-based; settings: for IC50 / IC20: CHO hERG cells, whole-cell patch-clamp; for IC20: human, CHO cells stably expressing hERG; for hERG IC20/TLR7 IC50 / hERG IC20/TLR8 IC50 / hERG IC20/TLR9 IC50: safety ratio
T2 construct: expressed in transfected cells
Procedure: hERG Channel Inhibition Assay:
The hERG K+ channels were cloned in humans and stably expressed in a CHO (Chinese hamster ovary) cell line. CHOhERG cells were used for patch-clamp (voltage-clamp, whole-cell) experiments. Cells were stimulated by a voltage pattern to activate hERG channels and conduct IKhERG Currents (rapid delayed outward rectifier potassium current of the hERG channel). After the cells were stabilized for a few minutes, the amplitude and kinetics of IKhERG were recorded at a stimulation frequency of 0.1 Hz, (6 bpm). Thereafter, the test compound was added to the preparation at increasing concentrations. For each concentration, an attempt was made to reach a steady-state effect, usually, this was achieved within 3-10 min at which time the next highest concentration was applied. The amplitude and kinetics of IKhERG are recorded in each concentration of the drug which were compared to the control values (taken as 100%). (references: Redfern W S, Carlsson L, Davis A S, Lynch W G, MacKenzie I, Palethorpe S, Siegl P K, Strang I, Sullivan A T, Wallis R, Camm A J, Hammond T G. 2003; Relationships between preclinical cardiac electrophysiology, clinical QT interval prolongation and torsade de pointes for a broad range of drugs: evidence for a provisional safety margin in drug development. Cardiovasc. Res. 58:32-45, Sanguinetti M C, Tristani-Firouzi M. 2006; hERG potassium channels and cardiac arrhythmia. Nature 440:463-469, Webster R, Leishman D, Walker D. 2002; Towards a drug concentration effect relationship for QT prolongation and torsades de pointes. Curr. Opin. Drug Discov. Devel. 5:116-26).

T2 sequence (Q12809 whole entry): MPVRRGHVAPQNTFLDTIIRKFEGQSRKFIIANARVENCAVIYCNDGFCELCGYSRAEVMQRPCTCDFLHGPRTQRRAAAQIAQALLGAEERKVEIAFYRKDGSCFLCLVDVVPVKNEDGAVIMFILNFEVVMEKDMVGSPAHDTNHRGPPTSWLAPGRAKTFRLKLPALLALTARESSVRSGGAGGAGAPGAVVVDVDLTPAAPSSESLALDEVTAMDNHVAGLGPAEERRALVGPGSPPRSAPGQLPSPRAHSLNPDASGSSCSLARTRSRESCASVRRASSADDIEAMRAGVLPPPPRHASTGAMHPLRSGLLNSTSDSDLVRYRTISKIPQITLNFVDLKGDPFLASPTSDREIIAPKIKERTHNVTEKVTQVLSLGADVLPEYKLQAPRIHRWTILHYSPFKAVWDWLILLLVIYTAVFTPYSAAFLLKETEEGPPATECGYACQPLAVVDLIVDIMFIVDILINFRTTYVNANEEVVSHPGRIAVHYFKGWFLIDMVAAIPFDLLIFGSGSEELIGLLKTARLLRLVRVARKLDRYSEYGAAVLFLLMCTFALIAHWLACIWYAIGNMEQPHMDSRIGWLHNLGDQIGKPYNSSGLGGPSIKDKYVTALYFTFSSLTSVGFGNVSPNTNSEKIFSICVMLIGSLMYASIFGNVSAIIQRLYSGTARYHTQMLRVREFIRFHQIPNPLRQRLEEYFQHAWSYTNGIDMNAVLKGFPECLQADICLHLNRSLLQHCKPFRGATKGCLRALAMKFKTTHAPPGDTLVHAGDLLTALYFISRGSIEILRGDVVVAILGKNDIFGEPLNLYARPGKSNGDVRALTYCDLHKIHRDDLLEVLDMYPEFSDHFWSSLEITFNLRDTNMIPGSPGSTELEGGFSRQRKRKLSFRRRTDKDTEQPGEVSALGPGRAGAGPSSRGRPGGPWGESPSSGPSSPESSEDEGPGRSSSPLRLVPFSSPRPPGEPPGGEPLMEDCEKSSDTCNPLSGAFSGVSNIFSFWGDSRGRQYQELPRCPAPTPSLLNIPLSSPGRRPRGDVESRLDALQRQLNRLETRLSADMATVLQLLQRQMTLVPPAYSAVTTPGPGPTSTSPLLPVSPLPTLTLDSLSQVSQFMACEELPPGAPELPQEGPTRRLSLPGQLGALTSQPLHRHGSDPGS
T1 sequence (P08684 whole entry): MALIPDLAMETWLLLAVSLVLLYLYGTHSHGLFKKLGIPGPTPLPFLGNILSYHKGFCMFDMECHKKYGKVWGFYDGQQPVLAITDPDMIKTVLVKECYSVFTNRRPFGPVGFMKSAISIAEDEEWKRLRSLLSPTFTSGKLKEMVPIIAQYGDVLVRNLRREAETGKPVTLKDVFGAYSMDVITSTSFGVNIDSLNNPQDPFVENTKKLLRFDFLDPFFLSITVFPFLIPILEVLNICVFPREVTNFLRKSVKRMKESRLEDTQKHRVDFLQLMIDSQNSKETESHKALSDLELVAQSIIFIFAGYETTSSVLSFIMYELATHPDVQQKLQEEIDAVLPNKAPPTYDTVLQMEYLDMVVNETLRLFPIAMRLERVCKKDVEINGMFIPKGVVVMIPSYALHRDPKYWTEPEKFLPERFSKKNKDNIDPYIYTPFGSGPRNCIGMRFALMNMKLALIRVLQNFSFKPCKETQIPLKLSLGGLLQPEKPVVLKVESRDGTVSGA

SMILES | CYP (%) 3A4 (CYP3A4) | IC50 (hERG channel) | IC20 (hERG channel) | hERG IC20/TLR7 IC50 (hERG channel) | hERG IC20/TLR8 IC50 (hERG channel) | hERG IC20/TLR9 IC50 (hERG channel)
C[C@@H]1CN(c2ccc(C#N)n3ncc(F)c23)C[C@H](CN2CC3(C2)OCc2cc(N4CC(C)(N)C4)ncc23)O1 [Example 24, 4-[(2S,6R)-2-[[6-(3-amino-3-methyl-azetidin-1-yl)spiro[1H-furo[3,4-c]pyridine-3,3′-azetidine]-1′-yl]methyl]-6-methyl-morpholin-4-yl]-3-fluoro-pyrazolo[1,5-a]pyridine-7-carbonitrile] | −0.5% |  |  |  |  | 
C[C@@H]1CN(c2ccc(C#N)n3nccc23)C[C@H](CN2CC3(C2)OCc2cc(N4CC5(CNCCO5)C4)ccc23)O1 [Example 7, 4-[(2R,6S)-2-methyl-6-[[6-(5-oxa-2,8-diazaspiro[3.5]nonan-2-yl)spiro[1H-isobenzofuran-3,3′-azetidine]-1′-yl]methyl]morpholin-4-yl]pyrazolo[1,5-a]pyridine-7-carbonitrile] | 16.5% |  |  |  |  | 
C[C@@H]1CN(c2ccc(C#N)n3ncc(F)c23)C[C@H](CN2CC3(C2)OCc2cc(N4CC5(CN(C)C5)C4)ccc23)O1 [Example 2, 3-fluoro-4-[(2R,6S)-2-methyl-6-[[6-(6-methyl-2,6-diazaspiro[3.3]heptan-2-yl)spiro[1H-isobenzofuran-3,3′-azetidine]-1′-yl]methyl]morpholin-4-yl]pyrazolo[1,5-a]pyridine-7-carbonitrile] |  | > 20 µM | 9.9 µM | 990 | 396 | 220

Second part, led by results:

CYP (%) 3A4 (CYP3A4) | SMILES | IC50 (hERG channel) | IC20 (hERG channel) | hERG IC20/TLR7 IC50 (hERG channel) | hERG IC20/TLR8 IC50 (hERG channel) | hERG IC20/TLR9 IC50 (hERG channel)
14% | [2H]c1ccc2c(N3C[C@H](CN4CC5(C4)OCc4cc(N6C[C@H]7NCCO[C@@H]7C6)ccc45)O[C@H](C)C3)ccc(C#N)c2n1 [Example 17, 5-[(2S,6R)-2-[[6-[(4aR,7aR)-3,4,4a,5,7,7a-hexahydro-2H-pyrrolo[3,4-b][1,4]oxazin-6-yl]spiro[1H-isobenzofuran-3,3′-azetidine]-1′-yl]methyl]-6-methyl-morpholin-4-yl]-2-deuterio-quinoline-8-carbonitrile] |  |  |  |  | 
12.5% | [2H]c1ccc2c(N3C[C@H](CN4CC5(C4)OCc4cc(N6CC(C)(N)C6)cnc45)O[C@H](C)C3)ccc(C#N)c2n1 [Example 21, 5-[(2S,6R)-2-[[3-(3-amino-3-methyl-azetidin-1-yl)spiro[5H-furo[3,4-b]pyridine-7,3′-azetidine]-1′-yl]methyl]-6-methyl-morpholin-4-yl]-2-deuterio-quinoline-8-carbonitrile] | > 20 µM | > 10 µM | >1428 | >588 | >181
40.5% | [2H]c1ccc2c(N3C[C@H](CN4CC5(C4)OCc4cc(N6CC(N)C6)cnc45)O[C@H](C)C3)ccc(C#N)c2n1 [Example 20, 5-[(2S,6R)-2-[[3-(3-aminoazetidin-1-yl)spiro[5H-furo[3,4-b]pyridine-7,3′-azetidine]-1′-yl]methyl]-6-methyl-morpholin-4-yl]-2-deuterio-quinoline-8-carbonitrile] |  |  |  |  | 
